In article PMC10257182, “Discovery of senolytics using machine learning” (Nature Communications, 2023):
Like-named read-outs stand apart in the source and are kept apart here.

Assays:
Type in all cases: cell-based, human
[1] = tested on: non-senescent control A549 cells; test: Nuclei count senolytic assay, TIS model, non-senescent control cells; conditions: Homo sapiens, A549, Control cells, mean, read-out: Mean % Cell Survival
Procedure: (§1) We performed a second validation of the effectiveness of our machine learning models using a different stressor. We focused on therapy-induced senescence (TIS, Supplementary Fig. 6a), where human epithelial cancerous cells (A549) were induced to become senescent by addition of etoposide. Cells were treated with 100 μM etoposide for 48 h, followed by another three days of exposure to media in standard conditions.
(§2) We performed experimental validation of the compounds with z-score > 8 (Fig. 2e). […] We employed two cellular models of senescence: one of OIS and a second one of TIS. For the OIS case, we utilised IMR90 ER:RAS cells with 4-OHT at 100 nM. […] For the TIS model, we used A549 cells with etoposide at 100 μM. The exposure of the cells to etoposide lasted 48 h, after which period the cells were cultivated for a further three days with normal media.
(§3) IMR90 (CCL-186) human foetal lung fibroblasts and A549 (CCL-185) human lung adenocarcinoma cells were obtained from the American Type Culture Collection (ATCC, Manassas, VA). The cell lines were confirmed to be mycoplasma negative (Lonza MycoAlert, cat #LT07-118). IMR90 ER:RAS is a derivative of IMR90 cells expressing a switchable version of oncogenic H-Ras[84]. IMR90 ER:RAS and A549 cells were maintained in Dulbecco’s Modified Eagle Medium (DMEM, ThermoFisher) supplemented with foetal bovine serum (10%), L-glutamine (2 mM, ThermoFisher), and antibiotic-antimycotic solution (1%, ThermoFisher) and incubated under standard tissue culture conditions (37 °C and 5% CO2). For induction of the senescent phenotype, IMR90-ER:RAS cells were cultured in hydroxytamoxifen (4-OHT) (Sigma) added media at 100 nM final concentration. IMR90 were kept in culture for over 27 passages for replicative senescence. Cells were tested for mycoplasma on a regular basis.
(§4) Cells were seeded (50 μL per well) into 384-well plates (IMR90 ER:RAS cells in Nunc Optical Bottom Polybase Microplates [#142761, Thermo Scientific, Rochester, NY] and A549 cells in CELLSTAR Cell Culture Microplates [#781091, Greiner Bio-One, Kremsmünster, Austria]). Cells were incubated under standard tissue culture conditions for 24 h before the addition of compounds. Passage 14 IMR90 ER:RAS cells were seeded at 1300 cells per well in the control condition, and at 1600 cells per well in the senescent case. Passage 34 A549 cells were seeded at 7000 cells per well in the control condition, and at 10,000 cells per well in the senescent case.
(§5) Dose response plates were prepared with a DMSO control and a 10-point […] concentration range, and added to the compounds using a D300e digital dispenser (Tecan Trading AG, Switzerland) at a final concentration of between 10 μM and 10 nM. Every screened condition was carried out in triplicate. After 72 h of incubation with exposure to the compounds, cells were fixed by the addition of an equal volume of formaldehyde (8%, 50 μL; #BP531-500, Fisher Bioreagents, Fisher Scientific, Loughborough, Leicestershire) to the existing media, incubated at room temperature (30 min), and washed three times in phosphate-buffered saline (PBS). Cells were then permeabilised in Triton-X100 (0.1%, 50 μL) and incubated at room temperature (30 min) followed by three more washes with PBS.
(§6) Cells were stained with Hoechst 33342 for nuclei count (excitation/emission wavelength at 387/447 […], DAPI channel, original concentration at 10 mg/ml, final concentration at 2 μg/ml; H1399, Molecular Probes, Eugene, OR). The staining solution was prepared in bovine serum albumin solution (10%). The staining solution was added to each well (30 μL) and incubated in the dark at room temperature (30 min), followed by three washes with PBS and no final aspiration. Plates were foil sealed.
(§7) Plates were imaged on an ImageXpress micro XLS (Molecular Devices, Eugene, OR) equipped with a robotic plate loader (Scara4, PAA, UK).

[2] = tested on: senescent A549 cells (etoposide-induced); test: Nuclei count senolytic assay, therapy-induced senescence (TIS) model, senescent cells; conditions: Homo sapiens, A549, Senescent cells, mean, read-out: Mean % Cell Survival
Procedure: as §1, §2, §3, §4, §5, §6, §7

[3] = tested on: non-senescent control IMR90 ER:RAS cells; test: Nuclei count (Hoechst, high content imaging) senolytic assay, OIS model, non-senescent control cells; conditions: Homo sapiens
Text: To test for senolytic activity, we compared the effect of each compound on the total cell number (automated high content image-based analysis of total number of nuclei per well) in non-senescent and senescent IMR90 ER:RAS cultures treated with the top hits from the computational screen (Figs. 2e and 3a–d and Supplementary Fig. 4a–c). The drop in cell number compared to untreated controls is indicated by the nuclei count and reflects cell death[13],[15]. As positive control, we employed ouabain, a cardiac glycoside with well characterised senolytic activity.
as §2, §3, §4, §5, §6

`Cc1c(-c2c(F)cc(C(N)=O)c3[nH]c4c(c23)CC[C@H](C(C)(C)O)C4)cccc1-n1c(=O)c2cccc(F)c2n(C)c1=O` [BMS 986142] gave a viability at 10 µM ([1]; log (dose) [M] -5) of 116%, a viability at 4.68 µM ([1]; log (dose) [M] -5.33) of 101% and a viability at 2.19 µM ([1]; log (dose) [M] -5.66) of 96.6%. It also gave a viability at 1 µM ([1]; log (dose) [M] -6) of 101%, a viability at 0.468 µM ([1]; log (dose) [M] -6.33) of 98% and a viability at 0.219 µM ([1]; log (dose) [M] -6.66) of 37.1%. The viability at 0.1 µM ([1]; log (dose) [M] -7) was 98.9%, the viability at 0.0468 µM ([1]; log (dose) [M] -7.33) was 33.5% and the viability at 0.0219 µM ([1]; log (dose) [M] -7.66) was 103%. It also gave a viability at 0.01 µM ([1]; log (dose) [M] -8) of 99.7%, a viability at 10 µM ([2]; log (dose) [M] -5) of 77.3% and a viability at 4.68 µM ([2]; log (dose) [M] -5.33) of 86.4%. The viability at 2.19 µM ([2]; log (dose) [M] -5.66) was 85.2%, the viability at 1 µM ([2]; log (dose) [M] -6) was 92.7% and the viability at 0.468 µM ([2]; log (dose) [M] -6.33) was 94.2%. The viability at 0.219 µM ([2]; log (dose) [M] -6.66) was 87.5%, the viability at 0.1 µM ([2]; log (dose) [M] -7) was 100% and the viability at 0.0468 µM ([2]; log (dose) [M] -7.33) was 95.4%. The viability at 0.0219 µM ([2]; log (dose) [M] -7.66) was 104%, the viability at 0.01 µM ([2]; log (dose) [M] -8) was 101% and the viability at 10 µM ([3]; IMR-90, 72 h, Control, log (dose) [M] -5, 72 h, mean n=3 (Fig 3C), read-out: Mean % Cell Survival) was 97.1%. It also gave a viability at 4.677 µM ([3]; IMR-90, 72 h, Control, log (dose) [M] -5.33, 72 h, mean n=3 (Fig 3C), read-out: Mean % Cell Survival) of 136%, a viability at 2.188 µM ([3]; IMR-90, 72 h, Control, log (dose) [M] -5.66, 72 h, mean n=3 (Fig 3C), read-out: Mean % Cell Survival) of 117% and a viability at 1 µM ([3]; IMR-90, 72 h, Control, log (dose) [M] -6, 72 h, mean n=3 (Fig 3C), read-out: Mean % Cell Survival) of 115%. For the same compound, the viability at 0.4677 µM ([3]; IMR-90, 72 h, Control, log (dose) [M] -6.33, 72 h, mean n=3 (Fig 3C), read-out: Mean % Cell Survival) was 97.6%, the viability at 0.2188 µM ([3]; IMR-90, 72 h, Control, log (dose) [M] -6.66, 72 h, mean n=3 (Fig 3C), read-out: Mean % Cell Survival) was 107% and the viability at 0.1 µM ([3]; IMR-90, 72 h, Control, log (dose) [M] -7, 72 h, mean n=3 (Fig 3C), read-out: Mean % Cell Survival) was 108%. For the same compound, the viability at 0.04677 µM ([3]; IMR-90, 72 h, Control, log (dose) [M] -7.33, 72 h, mean n=3 (Fig 3C), read-out: Mean % Cell Survival) was 105%, the viability at 0.02188 µM ([3]; IMR-90, 72 h, Control, log (dose) [M] -7.66, 72 h, mean n=3 (Fig 3C), read-out: Mean % Cell Survival) was 114% and the viability at 0.01 µM ([3]; IMR-90, 72 h, Control, log (dose) [M] -8, 72 h, mean n=3 (Fig 3C), read-out: Mean % Cell Survival) was 104%. It also gave a viability at 10 µM ([3]; IMR-90, Control cells, log (dose) [M] -5, individual replicates, SUP FIG 4C, read-out: % Cell Survival) of 104%, a viability at 2.188 µM ([3]; IMR-90, Control cells, log (dose) [M] -5.66, individual replicates, SUP FIG 4C, read-out: % Cell Survival) of 125% and a viability at 1 µM ([3]; IMR-90, Control cells, log (dose) [M] -6, individual replicates, SUP FIG 4C, read-out: % Cell Survival) of 119%. For the same compound, the viability at 0.2188 µM ([3]; IMR-90, Control cells, log (dose) [M] -6.66, individual replicates, SUP FIG 4C, read-out: % Cell Survival) was 108%, the viability at 0.1 µM ([3]; IMR-90, Control cells, log (dose) [M] -7, individual replicates, SUP FIG 4C, read-out: % Cell Survival) was 107% and the viability at 0.04677 µM ([3]; IMR-90, Control cells, log (dose) [M] -7.33, individual replicates, SUP FIG 4C, read-out: % Cell Survival) was 108%. The viability at 0.02188 µM ([3]; IMR-90, Control cells, log (dose) [M] -7.66, individual replicates, SUP FIG 4C, read-out: % Cell Survival) was 116%, the viability at 0.01 µM ([3]; IMR-90, Control cells, log (dose) [M] -8, individual replicates, SUP FIG 4C, read-out: % Cell Survival) was 104% and the viability at 4.68 µM ([3]; IMR-90, Control, log (dose) [M] -5.33, read-out: % Cell Survival) was 99.7%. It also gave a viability at 2.19 µM ([3]; IMR-90, Control, log (dose) [M] -5.66, read-out: % Cell Survival) of 88.8%, a viability at 1 µM ([3]; IMR-90, Control, log (dose) [M] -6, read-out: % Cell Survival) of 97.9% and a viability at 0.468 µM ([3]; IMR-90, Control, log (dose) [M] -6.33, read-out: % Cell Survival) of 91.9%. For the same compound, the viability at 0.219 µM ([3]; IMR-90, Control, log (dose) [M] -6.66, read-out: % Cell Survival) was 111%, the viability at 0.1 µM ([3]; IMR-90, Control, log (dose) [M] -7, read-out: % Cell Survival) was 92.2% and the viability at 0.04677 µM ([3]; IMR-90, Control, log (dose) [M] -7.33, read-out: % Cell Survival) was 101%. For the same compound, the viability at 0.0219 µM ([3]; IMR-90, Control, log (dose) [M] -7.66, read-out: % Cell Survival) was 94.6% and the viability at 0.01 µM ([3]; IMR-90, Control, log (dose) [M] -8, read-out: % Cell Survival) was 95.3%.
